Here are results for 4 molecules from US20080213390A1, “Deuterium Depleted Water (Ddw) Using As Adjuvant In Cancer Therapy For Cytostatics Toxicity Reducing” (priority 2005, published 2008).

How the values of data set [1] were obtained:
60 ppm concentration Deuterium Depleted Water was used for healthy adult outbred Wistar rats. Mono-chemotherapy was used to treat these animals using the following cytostatics: Vinblastine (VBL); Cyclophosphamide (CFS); 5-Fluorouracil (5-Fu); Farmarubicine (FARM). The administered doses were:
VBL—0.1 mg/kg body weight;
5-Fu—10 mg/kg body weight; and
FARM—1 mg/kg body weight.
The cytostatics were intra-peritoneally administered (i.p.) for 5 days consecutively.
The animals were distributed into two groups, as:
Animal sacrifice occurred over 5 and 10 days, respectively from the last cytostatic dose. After animal sacrifice, some tests were performed: bio-chemical, cyto-histological and morphological tests (on liver, spleen, kidneys), and tests for 3HTdR incorporation into lymphoid organs (bone marrow and lympho-nodules).
The protective effect of the 60 ppm Deuterium Depleted Water against the toxicity generated by cytostatics were studied using lots of 88 Wistar rats, each lot, males and females, with an average weight of 172 g. The animal lots were established as per GLP on pharmacological studies on laboratory-tested animals.

Data set [2] is described as follows: Measurement of protein, glycoprotein and serum protein glycolysis. The class given is in vivo, Wistar rats. The settings on record: for Amount of glycolysis with Deuterium Depleted Water: 60 ppm DDW daily diet; for Percentage of decrease of protein glycolysis in animals receiving DDW: DDW versus tap water; for Amount of Glycolysis with Tap Water: tap water daily diet. The source says: The methods used for these measurements are well known (measuring burette and the (glucidic) glucose compound dosing in the reaction with orto-toluidine).

The conditions of data set [3]: serum, 8 rats per lot.
For data set [4] the following is noted: TW-control group (150 ppm Deuterium tap water daily diet).
Method: The studies were performed using samples from peripheral blood, hematogenous marrow and lymphatic ganglions. The prepared samples were classically stained with May-Grünwald-Giemsa.
Where [5] appears, read: DDW group, cytostatic i.p. 5 days.
The mark [6] stands for this setting: TW-control group similarly treated, animals with obvious toxicity signs had to be sacrificed.
The mark [7] stands for this setting: DDW group (daily diet with Deuterium Depleted Water).

Each structure is given as a SMILES string. Read-outs that look alike come from different tables or passages of the source.

Method for P450 cyto-chromes: To study it, the cell organelles were separated by repeated centrifugation with a final separation of microsomes at 105,000 g via ultra-centrifugation. At the microsomes level, the P450 cyto-chromes (a member of the iso-enzymes family) activity and concentration are measured, which are the most important indications of enzyme activation (MFO).
The P450 concentration is spectrophotometrically determined after CO and Natriumdithionit reduction of microsomal P450 (Omura and Sato method). […] The enzymatic activity has been determined for a single substratum, namely for p-nitroanisol, which involves a de-metilation reaction.

`O=c1[nH]cc(F)c(=O)[nH]1` [5-fluorouracil, 5-Fluorouracil]: in data set [1] (setting [5]), the “spontaneous mortality” value is on record as “no records of any spontaneous dead animals”. In addition, the “spontaneous mortality” value in data set [1] (setting [6]) was “spontaneous mortality occurred”. In addition, the “signs of toxicity during the 5 days of therapy and post-therapy period” value (shortened to “signs”) in data set [1] (rat, in vivo, ip) is “no signs of toxicity”. The “P450 activity relative to the control group” value in the data set on P450 cyto-chromes (group of animals treated with Deuterium depleted Water) is reported as “approximately 200%”. For the same molecule, in data set [2], the “Amount of glycolysis with Deuterium Depleted Water” value was found to be 4.2 mg glucides/g proteins, the “Percentage of decrease of protein glycolysis in animals receiving DDW” value is given as 39% and the “Amount of Glycolysis with Tap Water” value is recorded as 6.89 mg glucides/g proteins. Further, the “Sialic acid (average values)” value in data set [3] (setting [7]) was determined as 2.43 mmol/L. In addition, in data set [3] (TW-control group), the “Sialic acid (average values)” value turned out to be 3.04 mmol/L.

Turning to `O=P1(N(CCCl)CCCl)NCCCO1` (stereo not drawn) [Cyclophosphamide], in data set [1] (setting [5]), the “signs” value is on record as “no signs of toxicity”; the “spontaneous mortality” value is listed as “no records of any spontaneous dead animals”. Further, the “spontaneous mortality” value in data set [1] (setting [6]) was “spontaneous mortality occurred”. In addition, in the data set with P450 cyto-chromes (group TW-CFS), the “decrease of the phase I and II enzymes” value is “approximately 100%”. In data set [2], the “Amount of glycolysis with Deuterium Depleted Water” value turned out to be 5.47 mg glucides/g proteins, the “Percentage of decrease of protein glycolysis in animals receiving DDW” value was found to be 17% and the “Amount of Glycolysis with Tap Water” value is on record as 6.59 mg glucides/g proteins. The “Sialic acid (average values)” value in data set [3] (setting [7]) was determined as 2.68 mmol/L. Also, the “Sialic acid (average values)” value in data set [3] (TW-control group) was found to be 2.77 mmol/L. The “findings in peripheral blood” value in data set [4] was “anemia and granulopenia”.

As for `COc1cccc2c1C(=O)c1c(O)c3c(c(O)c1C2=O)C[C@@](O)(C(=O)CO)C[C@@H]3O[C@H]1C[C@H](N)[C@@H](O)[C@H](C)O1` [farmarubicine, Farmarubicine], the “spontaneous mortality” value in data set [1] (setting [5]) was “no records of any spontaneous dead animals”. Besides, the “spontaneous mortality” value in data set [1] (setting [6]) is listed as “spontaneous mortality occurred”. For the same molecule, the “signs” value in data set [1] (rat, in vivo, ip) is listed as “no signs of toxicity”. For the same molecule, in data set [2], the “Amount of glycolysis with Deuterium Depleted Water” value turned out to be 6.3 mg glucides/g proteins, the “Percentage of decrease of protein glycolysis in animals receiving DDW” value is 35% and the “Amount of Glycolysis with Tap Water” value is given as 9.72 mg glucides/g proteins. For the same molecule, the “Sialic acid (average values)” value in data set [3] (setting [7]) was 2.62 mmol/L. For the same molecule, the “Sialic acid (average values)” value in data set [3] (TW-control group) was found to be 2.88 mmol/L.

`CC[C@]1(O)C[C@@H]2CN(CCc3c([nH]c4ccccc34)[C@@](C(=O)OC)(c3cc4c(cc3OC)N(C)[C@H]3[C@@](O)(C(=O)OC)[C@H](OC(C)=O)[C@]5(CC)C=CCN6CC[C@]43[C@@H]65)C2)C1` [vinblastine, Vinblastine]: the percentage of mortality in data set [1] (DDW group (60 ppm DDW daily diet), cytostatic i.p. 5 days) was 25%. In addition, the percentage of mortality in data set [1] (TW-control group (tap water daily diet), cytostatic i.p. 5 days) stood at 66%. In data set [1] (rat, in vivo), the body weight increase result is “far more evident”. Moreover, the “signs” value in data set [1] (rat, in vivo, ip) is recorded as “low intensity toxic effects”. Moreover, in data set [2], the “Amount of glycolysis with Deuterium Depleted Water” value is 7.5 mg glucides/g proteins, the “Percentage of decrease of protein glycolysis in animals receiving DDW” value came to 7% and the “Amount of Glycolysis with Tap Water” value worked out at 8.06 mg glucides/g proteins. In data set [3] (setting [7]), the “Sialic acid (average values)” value is 2.82 mmol/L. Moreover, the “Sialic acid (average values)” value in data set [3] (TW-control group) stood at 3.00 mmol/L.
